Test system: ATDC5 cells
Assay: Chondrogenesis activity assay in ATDC5 cells (collagen type II induction, immunofluorescence)
Format: cell-based, mouse
Settings: Mus musculus; for EC50: collagen type II induction in ATDC5 cells, concentration reaching 50% of maximum induction; for Emax: maximum percent induction of collagen type II relative to internal reference compound at 10 μM, ATDC5 cells
Procedure, shortened: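 Collagen type II was stained in fixed, permeabilized cells with an Alexa Fluor 488 secondary and measured by high-content fluorescence imaging. ATDC5 cells had 4 days at 37 °C in insulin-supplemented differentiation medium with compound, typically 40 nM–10 μM, 0.1% DMSO. DMSO wells and a 10 μM internal reference compound were used for normalization.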

SMILES	EC50	Emax
CCn1c2c(-c3ccc(C(O)c4ccccc4)cc3)cc(Cl)cc2c2ccnc(C)c21 (centres unmarked) [Example 238, [4-(6-Chloro-9-ethyl-1-methyl-9H-pyrido[3,4-b]indol-8-yl)-phenyl]-phenyl-methanol]	1.4 µM	> 80%
CCn1c2c(-c3cn[nH]c3)cc(Cl)cc2c2ccnc(C)c21 [Example 239, 6-Chloro-9-ethyl-1-methyl-8-(1H-pyrazol-4-yl)-9H-pyrido[3,4-b]indole]	0.25 µM	50 to 80%
COc1ccc(-c2cc(Cl)cc3c4ccnc(C)c4n(C)c23)nc1N [Example 240, 6-(6-Chloro-1,9-dimethyl-9H-pyrido[3,4-b]indol-8-yl)-3-methoxy-pyridin-2-ylamine]	0.49 µM	50 to 80%
Cc1nccc2c1[nH]c1c(-c3cnn(Cc4ccccn4)c3)cc(Cl)cc12 [Example 242, 6-Chloro-1-methyl-8-(1-pyridin-2-ylmethyl-1H-pyrazol-4-yl)-9H-pyrido[3,4-b]indole]	0.57 µM	> 80%
Cc1nccc2c1[nH]c1c(-c3ccc([S+](C)[O-])cc3)cc(Cl)cc12 (centres unmarked) [Example 243, 6-Chloro-8-(4-methanesulfinyl-phenyl)-1-methyl-9H-pyrido[3,4-b]indole]	0.66 µM	> 80%
CCn1c2c(-c3ccc(Oc4ccccc4)cc3)cc(Cl)cc2c2ccnc(C)c21 [Example 246, 6-Chloro-9-ethyl-1-methyl-8-(4-phenoxy-phenyl)-9H-pyrido[3,4-b]indole]	2.9 µM	50 to 80%
Cc1nccc2c1[nH]c1c(-c3cccc(CCO)c3)cc(Cl)cc12 [Example 248, 2-[3-(6-Chloro-1-methyl-9H-pyrido[3,4-b]indol-8-yl)-phenyl]-ethanol]	> 3.3 µM	20 to 50%
Cc1nccc2c1[nH]c1c(-c3cccc(OCCN4CCOCC4)c3)cc(Cl)cc12 [Example 249, 6-Chloro-1-methyl-8-[3-(2-morpholin-4-yl-ethoxy)-phenyl]-9H-pyrido[3,4-b]indole]	> 3.3 µM	20 to 50%
Cc1nccc2c1[nH]c1c(-c3ccc(C(F)(F)F)cc3)cc(Cl)cc12 [Example 252, 6-Chloro-1-methyl-8-(4-trifluoromethyl-phenyl)-9H-pyrido[3,4-b]indole]	1.6 µM	> 80%
CCn1c2c(-c3cccc(N4CCOCC4)c3)cc(Cl)cc2c2ccnc(C)c21 [Example 253, 6-Chloro-9-ethyl-1-methyl-8-(3-morpholin-4-yl-phenyl)-9H-pyrido[3,4-b]indole]	> 10 µM	20 to 50%
CCn1c2c(-c3cccc(CN4CCOCC4)c3)cc(Cl)cc2c2ccnc(C)c21 [Example 254, 6-Chloro-9-ethyl-1-methyl-8-(3-morpholin-4-ylmethyl-phenyl)-9H-pyrido[3,4-b]indole]	> 3.3 µM	< 20%
Cc1nccc2c1[nH]c1c(-c3cccc(CN4CCOCC4)c3)cc(Cl)cc12 [Example 255, 6-Chloro-1-methyl-8-(3-morpholin-4-ylmethyl-phenyl)-9H-pyrido[3,4-b]indole]	> 3.3 µM	< 20%
CCn1c2c(-c3ccc(OCC4(C)COC4)cc3)cc(Br)cc2c2ccnc(C)c21 [Example 257, 6-Bromo-9-ethyl-1-methyl-8-[4-(3-methyl-oxetan-3-ylmethoxy)-phenyl]-9H-pyrido[3,4-b]indole]	0.31 µM	> 80%
Cc1nccc2c1[nH]c1c(-c3ccc(OCCn4cccn4)cc3)cc(Br)cc12 [Example 259, 6-Bromo-1-methyl-8-[4-(2-pyrazol-1-yl-ethoxy)-phenyl]-9H-pyrido[3,4-b]indole]	0.43 µM	> 80%
Cc1nccc2c1[nH]c1c(-c3cccc(OCc4ccc5ccccc5n4)c3)cc(Cl)cc12 [Example 260, 6-Chloro-1-methyl-8-[3-(quinolin-2-ylmethoxy)-phenyl]-9H-pyrido[3,4-b]indole]	> 1.1 µM	< 20%
CCn1c2c(-c3cnn(Cc4ccccn4)c3)cc(Br)cc2c2ccnc(C)c21 [Example 261, 6-Bromo-9-ethyl-1-methyl-8-(1-pyridin-2-ylmethyl-1H-pyrazol-4-yl)-9H-pyrido[3,4-b]indole]	1.5 µM	> 80%
Cc1nccc2c1[nH]c1c(-c3ccc(OC(F)(F)F)cc3)cc(Cl)cc12 [Example 262]	2.3 µM	> 80%
CCn1c2c(-c3cnn(CCOC(C)=O)c3)cc(Cl)cc2c2ccnc(C)c21 [Example 263, Acetic acid 2-[4-(6-chloro-9-ethyl-1-methyl-9H-pyrido[3,4-b]indol-8-yl)-pyrazol-1-yl]-ethyl ester]	0.55 µM	> 80%
Cc1nccc2c1[nH]c1c(-c3ccc(OCc4ncccn4)cc3)cc(Cl)cc12 [Example 266, 6-Chloro-1-methyl-8-[4-(pyrimidin-2-ylmethoxy)-phenyl]-9H-pyrido[3,4-b]indole]	0.11 µM	> 80%

SMILES	EC50	Emax
Cc1nccc2c1[nH]c1c(-c3cccc(OCc4ncccn4)c3)cc(Cl)cc12 [Example 267, 6-Chloro-1-methyl-8-[3-(pyrimidin-2-ylmethoxy)-phenyl]-9H-pyrido[3,4-b]indole]	> 3.3 µM	50 to 80%
Cc1nccc2c1[nH]c1c(-c3ccc(Oc4ncc(Br)cn4)cc3)cc(Cl)cc12 [Example 268, 8-[4-(5-Bromo-pyrimidin-2-yloxy)-phenyl]-6-chloro-1-methyl-9H-pyrido[3,4-b]indole]	0.34 µM	> 80%
Cc1nccc2c1[nH]c1c(-c3cccc(OCc4nccc5ccccc45)c3)cc(Cl)cc12 [Example 269, 6-Chloro-8-[3-(isoquinolin-1-ylmethoxy)-phenyl]-1-methyl-9H-pyrido[3,4-b]indole]	> 3.3 µM	20 to 50%
COc1cc(OC)nc(COc2cccc(-c3cc(Cl)cc4c3[nH]c3c(C)nccc34)c2)n1 [Example 272, 6-Chloro-8-[3-(4,6-dimethoxy-pyrimidin-2-ylmethoxy)-phenyl]-1-methyl-9H-pyrido[3,4-b]indole]	1.9 µM	> 80%
Cc1nccc2c1[nH]c1c(-c3cccc(OCc4nccs4)c3)cc(Cl)cc12 [Example 273, 6-Chloro-1-methyl-8-[3-(thiazol-2-ylmethoxy)-phenyl]-9H-pyrido[3,4-b]indole]	0.17 µM	< 20%
Cc1nccc2c1[nH]c1c(-c3cccc(OCc4ncc5ccccc5n4)c3)cc(Cl)cc12 [Example 274, 6-Chloro-1-methyl-8-[3-(quinazolin-2-ylmethoxy)-phenyl]-9H-pyrido[3,4-b]indole]	> 3.3 µM	< 20%
COc1cc(OC)nc(COc2ccc(-c3cc(Cl)cc4c3[nH]c3c(C)nccc34)cc2)n1 [Example 275, 6-Chloro-8-[4-(4,6-dimethoxy-pyrimidin-2-ylmethoxy)-phenyl]-1-methyl-9H-pyrido[3,4-b]indole]	0.3 µM	> 80%
CCn1c2c(-c3cnn(CC4OCCO4)c3)cc(Cl)cc2c2ccnc(C)c21 [Example 276, 6-Chloro-8-(1-[1,3]dioxolan-2-ylmethyl-1H-pyrazol-4-yl)-9-ethyl-1-methyl-9H-pyrido[3,4-b]indole]	0.42 µM	> 80%
Cc1nccc2c1[nH]c1c(-c3cccc(OCc4ccc(C(F)(F)F)o4)c3)cc(Cl)cc12 [Example 277, 6-Chloro-1-methyl-8-[3-(5-trifluoromethyl-furan-2-ylmethoxy)-phenyl]-9H-pyrido[3,4-b]indole]	> 3.3 µM	< 20%
Cc1nccc2c1[nH]c1c(-c3ccc(OCC4COc5ccccc5O4)cc3)cc(Cl)cc12 (centres unmarked) [Example 278, 6-Chloro-8-[4-(2,3-dihydro-benzo[1,4]dioxin-2-ylmethoxy)-phenyl]-1-methyl-9H-pyrido[3,4-b]indole]	> 3.3 µM	20 to 50%
Clc1cc(-c2ccc(Cl)nc2)c2c(c1)c1ccncc1n2CC1CCC1 [Example 279, 6-Chloro-8-(6-chloro-pyridin-3-yl)-9-cyclobutylmethyl-9H-pyrido[3,4-b]indole]	1.8 µM	20 to 50%
Clc1cc(-c2cccnc2)c2c(c1)c1ccncc1n2CC1CC1 [Example 280, 6-Chloro-9-cyclopropylmethyl-8-pyridin-3-yl-9H-pyrido[3,4-b]indole]	> 10 µM	< 20%
Cc1nccc2c3cc(Cl)cc(-c4cncnc4)c3n(CC3CC3)c12 [Example 281, 6-Chloro-9-cyclopropylmethyl-1-methyl-8-pyrimidin-5-yl-9H-pyrido[3,4-b]indole]	0.11 µM	< 20%
Cc1nccc2c3cc(Cl)cc(-c4ccc(Cl)cc4Cl)c3n(CC3CC3)c12 [Example 282, 6-Chloro-9-cyclopropylmethyl-8-(2,4-dichloro-phenyl)-1-methyl-9H-pyrido[3,4-b]indole]	3.6 µM	< 20%
Cc1nccc2c3cc(Cl)cc(-c4cnccc4Cl)c3n(CC3CC3)c12 [Example 283, 6-Chloro-8-(4-chloro-pyridin-3-yl)-9-cyclopropylmethyl-1-methyl-9H-pyrido[3,4-b]indole]	0.41 µM	< 20%
Cc1nccc2c3cc(Cl)cc(-c4cccnc4Cl)c3n(CC3CC3)c12 [Example 284, 6-Chloro-8-(2-chloro-pyridin-3-yl)-9-cyclopropylmethyl-1-methyl-9H-pyrido[3,4-b]indole]	4.2 µM	< 20%
Cc1nccc2c3cc(Cl)cc(-c4ccc(Cl)nc4Cl)c3n(CC3CC3)c12 [Example 285, 6-Chloro-9-cyclopropylmethyl-8-(2,6-dichloro-pyridin-3-yl)-1-methyl-9H-pyrido[3,4-b]indole]	6.1 µM	20 to 50%
Cc1nccc2c3cc(Cl)cc(-c4cnc(N(C)C)nc4)c3n(CC3CC3)c12 [Example 286, [5-(6-Chloro-9-cyclopropylmethyl-1-methyl-9H-pyrido[3,4-b]indol-8-yl)-pyrimidin-2-yl]-dimethyl-amine]	0.041 µM	< 20%

— patent US12275733B2, “Substituted pyrido[3,4-b]indoles for the treatment of cartilage disorders” (Sanofi, priority 2016, dated 2025)
